Assay results published in PMC5118230, “Effects of acetaminophen on mitochondrial complex I activity in the rat liver and kidney: a PET study with ^18F-BCPP-BF” (EJNMMI Research, 2016).
Blank lines part the entries; values can stand above or below the compound they belong to.

Experiments:
[1] = set-up: method as in PMID 24285187, PMID 24470629; conditions: pH 7.4; cited from earlier work
MC-I [2] = biological target: MC-I; set-up: method as in PMID 24285187, PMID 24470629; conditions: affinity to MC-I; cited from earlier work
[3] = tested on: mitochondrial complex I (MC-I); assay: PET kinetics and distribution of 18F-BCPP-BF in rat abdominal organs; assay type: in vivo
Experimental: (§1) Four animals per group were used for PET imaging.
(§2) Rats anesthetized by 1.5–2.0% isoflurane in O2 were positioned prone on a fixation plate and placed in the gantry hole of the PET scanner (SHR-7700, Hamamatsu Photonics, Hamamatsu, Japan). After a transmission scan for 15 min using a ^68Ge-^68Ga rotation rod source, ^18F-BCPP-BF at ca. 15 MBq was intravenously injected into each rat via the tail vein, and this was followed by an emission scan with list mode data acquisition (every 1 ms) for 90 min. The body temperature of each animal was monitored to record throughout the study using a Thermo-Hygro Recorder (TR-72Ui, T&D Corporation, Matsumoto, Japan).
(§3) The PET data obtained were reconstructed by Dynamic RAMLA (DRAMA) method with a Gauss filter of 1.0-mm FWHM and attenuation correction using the transmission scan data. Dynamic images every 2 min for the time activity curve (TAC) as well as summation images in the early (from 15 to 30 min after ^18F-BCPP-BF injection) and late (from 70 to 90 min) phases were reconstructed. Since there were no information on the TACs of ^18F-BCPP-BF in the liver and kidney, we conducted PET data acquisition up to 90 min after the injection.
(§4) Standard uptake value (SUV) images were created as follows: SUV=CTWs/Dinj
(§5) where C T is the tissue radioactivity (Bq/mL) obtained from PET images, W s is the body weight (g) of the rat being examined, and D inj is the injected dose (Bq) of ^18F-BCPP-BF. Each summation SUV image was superimposed on the corresponding X-CT images obtained using ClairvivoCT (Shimadzu Corporation, Kyoto, Japan). Volumes of interest (VOIs) were selected on summation images of the kidney (renal cortex and pelvis) and liver in the early (from 15 to 30 min) and late (from 70 to 90 min) phases and TACs were obtained from dynamic image data in each organ as SUV by setting the early phase VOIs.

[4] = tested on: mitochondrial complex I (MC-I); set-up: method as in PMID 24470629; conditions: with time, significant at the later phase of 60 min after injection; cited from earlier work
[5] = tested on: mitochondrial complex I (MC-I); assay: effects of acetaminophen on MC-I activity (18F-BCPP-BF uptake, PET); assay type: in vivo, rat
Experimental: In order to evaluate the acute effects of acetaminophen, vehicle or acetaminophen at a dose of 100 or 300 mg/kg in 10 mL/kg of vehicle (saline containing 20% Tween-80) was intraperitoneally administered 2 or 24 h before the PET probe injection.
as §2, §3, §4, §5

liver [6] = assay: biochemical parameters for hepatic function in serum after acetaminophen; assay type: in vivo, rat
Experimental: (§6) In a separate study from PET measurements, physiological and biochemical assessments were conducted on four animals for each time and dosing condition. Body weight measurements, urine collection, and blood sampling were conducted 2, 6, and 24 h after the administration of acetaminophen. A rat was placed in a metabolic cage on a 12/12-h light/dark cycle, and urine samples were collected for 24 h and centrifuged to remove suspended material, and the supernatants were analyzed to measure total protein, creatinine, and N-acetyl-β-D-glucosaminidase (NAG) using a biochemical automatic analyzer (JCA-BM6010, JEOL Ltd., Tokyo, Japan). Blood sample was collected from the tail vein, and the serum fraction separated from the blood was used in assay of alanine aminotransferase (ALT), aspartate aminotransferase (AST), lactate dehydrogenase (LDH), bilirubin (BIL), and BUN using a biochemical automatic analyzer (JCA-BM6010, JEOL Ltd., Tokyo, Japan).

kidney = assay: biochemical parameters for renal function in urine and serum after acetaminophen; assay type: in vivo, rat
Experimental: as §6

liver [7] = tested on: liver; set-up: method as in PMID 26102222; conditions: acetaminophen 300 mg/kg, mice; cited from earlier work
[8] = tested on: mitochondrial complex I (MC-I); assay: binding specificity of 18F-BCPP-BF to MC-I: pre-administration of rotenone, PET; assay type: in vivo, rat; conditions: rotenone 0.1 mg/kg/h i.v. infusion for 1 h before probe
Experimental: as §1, §2, §3, §4, §5

MC-I [9] = tested on: MC-I; set-up: method as in PMID 24470629; conditions: rotenone 0.1 mg/kg; cited from earlier work
[10] = control rat, 15 to 30 min post-injection, i.v.
[11] = control rat, 70 to 90 min post-injection, i.v.
[12] = 24 h after acetaminophen 300 mg/kg i.p., p < 0.001
[13] = 24 h after acetaminophen 300 mg/kg i.p., p = 0.034
[14] = 24 h after acetaminophen 300 mg/kg i.p., p = 0.027

SMILES: CC(C)(C)n1ncc(OCc2ccc(OCCOCCO[11CH3])nc2)c(Cl)c1=O [^11C-BCPP-EM, 2-tert-butyl-4-chloro-5-{6-[2-(2-^11C-methoxy-ethoxy)-ethoxy]-pyridin-3-ylmethoxy}-2H-pyridazin-3-one]
- logD7.4 [1]: 2.87

SMILES: COCCOCCOc1ccc(COc2cnn(C(C)(C)C)c(=O)c2Cl)cn1 [^11C-BCPP-EM, 2-tert-butyl-4-chloro-5-{6-[2-(2-^11C-methoxy-ethoxy)-ethoxy]-pyridin-3-ylmethoxy}-2H-pyridazin-3-one]
- Ki (MC-I [2]): 4.7 nM

SMILES: CC(C)(C)n1ncc(OCc2ccc(OCCCCF)nc2)c(Cl)c1=O [^18F-BCPP-BF, 2-tert-butyl-4-chloro-5-[6-(4-^18F-fluorobutoxy)-pyridin-3-ylmethoxy]-2H-pyridazin-3-one]
- Ki (MC-I [2]): 0.7 nM

SMILES: CC(C)(C)n1ncc(OCc2ccc(OCCCC[18F])nc2)c(Cl)c1=O [^18F-BCPP-BF, 2-tert-butyl-4-chloro-5-[6-(4-^18F-fluorobutoxy)-pyridin-3-ylmethoxy]-2H-pyridazin-3-one]
- averaged SUV, liver [3, 10]: 4.40 ± 0.39
- averaged SUV, renal cortex [3, 10]: 8.12 ± 0.69
- averaged SUV, renal pelvis [3, 10]: 4.17 ± 0.51
- averaged SUV, bladder ([3]; control rat, 15 to 30 min post-injection, i.v., data not shown): 0.88 ± 0.42
- averaged SUV, liver [3, 11]: 3.75 ± 0.38
- averaged SUV, renal cortex [3, 11]: 6.29 ± 0.30
- averaged SUV, renal pelvis [3, 11]: 4.37 ± 0.64
- type of kinetics of the time activity curves ([3]; rat renal cortex and liver, PET TACs): reversible-type kinetics
- logD7.4 [1]: 4.27
- accumulation of radioactivity in bone (defluorination) [4]: slightly greater accumulation of radioactivity in bone with time

SMILES: CC(C)(C)n1ncc(OCc2ccc(OCCOCCF)nc2)c(Cl)c1=O [^18F-BCPP-EF, 2-tert-butyl-4-chloro-5-{6-[2-(2-^18F-fluoroethoxy)-ethoxy]-pyridin-3-ylmethoxy}-2H-pyridazin-3-one]
- Ki (MC-I [2]): 2.31 nM

SMILES: CC(C)(C)n1ncc(OCc2ccc(OCCOCC[18F])nc2)c(Cl)c1=O [^18F-BCPP-EF, 2-tert-butyl-4-chloro-5-{6-[2-(2-^18F-fluoroethoxy)-ethoxy]-pyridin-3-ylmethoxy}-2H-pyridazin-3-one]
- logD7.4 [1]: 3.03

- BIL vs. the corresponding 100 mg/kg (liver [6]; [13]): 233.3%
- BIL vs. the corresponding control (liver [6]; [13]): 186.2%
- BIL level change (liver [6]; acetaminophen 100 mg/kg i.p.): did not show significant changes
- LDH change from the control condition (liver [6]; acetaminophen 100 or 300 mg/kg i.p., 2, 6 and 24 h): did not show any significant alterations
- urinary protein excretion vs. 100 mg/kg (kidney; 6 h after acetaminophen 300 mg/kg i.p., p = 0.017): 46.9%
- urinary protein excretion vs. control (kidney; 6 h after acetaminophen 300 mg/kg i.p., p = 0.028): 56.4%
- urinary protein excretion vs. 100 mg/kg (kidney; [14]): 143.0%
- urinary protein excretion vs. control (kidney; [14]): 128.9%
- BUN change (kidney; serum, acetaminophen treatment, at any time): did not show any significant alterations
- creatinine level vs. control (kidney; urine, 6 h after acetaminophen 300 mg/kg i.p., p < 0.001): 24.3%
- creatinine level vs. 100 mg/kg (kidney; urine, 6 h after acetaminophen 300 mg/kg i.p., p = 0.002): 23.4%
- NAG vs. control (kidney; urine, 24 h after acetaminophen 300 mg/kg i.p., p = 0.011): 161.8%
- NAG vs. 100 mg/kg (kidney; urine, 24 h after acetaminophen 300 mg/kg i.p., p = 0.027): 164.8%
- NAG change (kidney; urine, acetaminophen 100 mg/kg i.p.): did not show any significant changes
SMILES: CC(=O)Nc1ccc(O)cc1 [acetaminophen]
- 18F-BCPP-BF uptake by the liver vs. control ([5]; acetaminophen 100 mg/kg i.p., 2 h after, SUV 15 to 30 min, p = 0.017): 72.1%
- 18F-BCPP-BF uptake in the renal cortex vs. control ([5]; acetaminophen 100 mg/kg i.p., 24 h after, SUV 15 to 30 min, p = 0.038): 83.4%
- 18F-BCPP-BF uptake by the liver vs. control ([5]; acetaminophen 100 mg/kg i.p., 24 h after, SUV 15 to 30 min, p = 0.049): 81.4%
- 18F-BCPP-BF uptake by the liver vs. control ([5]; acetaminophen 300 mg/kg i.p., 2 h after, SUV 15 to 30 min, p = 0.003): 53.9%
- 18F-BCPP-BF uptake in the renal cortex vs. control ([5]; acetaminophen 300 mg/kg i.p., 2 h after, SUV 15 to 30 min, p = 0.025): 72.1%
- 18F-BCPP-BF uptake in the renal pelvis vs. control ([5]; acetaminophen 300 mg/kg i.p., 2 h after, SUV 15 to 30 min, p = 0.027): 56.6%
- 18F-BCPP-BF uptake by the liver vs. control ([5]; acetaminophen 300 mg/kg i.p., 24 h after, SUV 15 to 30 min, p = 0.002): 80.5%
- 18F-BCPP-BF uptake in the renal cortex vs. control ([5]; acetaminophen 300 mg/kg i.p., 24 h after, SUV 15 to 30 min, p = 0.009): 79.5%
- reduction of MC-I activity in the liver assessed using 18F-BCPP-BF ([5]; acetaminophen 300 mg/kg in rats): approximately 50%
- 18F-BCPP-BF uptake in the renal pelvis ([5]; acetaminophen i.p., 24 h after, SUV 15 to 30 min): no significant reduction
- AST vs. the corresponding 100 mg/kg (liver [6]; [12]): 383.0%
- AST vs. the corresponding control (liver [6]; [12]): 322.3%
- ALT vs. the corresponding control (liver [6]; 24 h after acetaminophen 300 mg/kg i.p., p = 0.001): 207.4%
- ALT level change (liver [6]; acetaminophen 100 mg/kg i.p.): did not show significant changes
- AST level change (liver [6]; acetaminophen 100 mg/kg i.p.): did not show significant changes
- reduction in 18F-2-DFR uptake by the liver (liver [7]): approximately 20%

SMILES: C=C(C)[C@H]1Cc2c(ccc3c2O[C@@H]2COc4cc(OC)c(OC)cc4[C@@H]2C3=O)O1 [rotenone]
- 18F-BCPP-BF uptake level in renal cortex vs. control ([8]; averaged SUV 15 to 30 min, p = 0.027): 64.2%
- 18F-BCPP-BF uptake level in liver vs. control ([8]; averaged SUV 15 to 30 min, p = 0.038): 76.9%
- inhibition degree of 18F-BCPP-BF uptake in renal cortex, of control ([8]; averaged SUV 70 to 90 min, p = 0.006): 52.2%
- inhibition of the binding of MC-I PET probes to MC-I in the heart and brain (MC-I [9]): fully inhibited
